The target of this assay is Rab7 GTPase wildtype (dog), GST fusion. As to the kind of experiment: Rab7 wildtype GTP binding inhibitors, SAR follow-up, biochemical, dog Rab7, bead multiplex flow cytometry, Bodipy-FL-GTP, pyrazoline series (AID 2041). Particulars: Bead-based flow cytometry, Ki calculated from EC50.

In PubChem BioAssay AID2041 (NMMLSC, 2009) one finds Ki data, which are given here for 8 compounds.

SMILES strings stand for the structures.

For `COc1ccc(C2CC(c3ccc(F)cc3)=NN2c2cccc(F)c2)cc1OC` (stereo not drawn), the Ki (commonly a dissociation constant, usually derived from enzyme kinetics or from competition with a known ligand) was 1470 nM.

As for `COc1ccc(C2=NN(c3ccccc3)C(c3ccc(Cl)cc3)C2)cc1` (stereo not drawn), the Ki was 40 nM.

Take `COc1ccc(C2=NN(c3cccc(F)c3)C(c3ccc(OC)cc3)C2)cc1` (stereo not drawn): the inhibitory constant (Ki) is 10 nM.

In the case of `O=S(=O)(c1ccc(N2N=C(c3ccccc3)CC2c2ccccc2)cc1)C(F)F` (stereo not drawn), the inhibition constant (Ki) is 30 nM.

`Clc1ccc(N2N=C(c3ccccc3)CC2c2ccccc2)cc1` (stereo not drawn): the Ki was 430 nM.

`COc1ccc(C2CC(c3cccc(Cl)c3)=NN2c2ccc(S(N)(=O)=O)cc2)cc1` (stereo not drawn): the Ki is 10 nM.

In the case of `COc1ccccc1N1N=C(c2ccccc2)CC1c1ccccc1` (stereo not drawn), the inhibition constant Ki is 660 nM.

Regarding `COc1ccc(C2CC(c3ccc(F)cc3)=NN2c2cc(Cl)ccc2Cl)cc1` (stereo not drawn), the Ki is 730 nM.
